According to EP0539587A1, “ANTI[…]” (TSUMURA & CO., priority 1991, dated 1992):
Structures can show the parent of a compound that is named as a salt.

Assays:
[1] = test system: human immunodeficiency virus; assay: Test of anti-AIDS virus activity using clone H9 cells (p24 antigen in culture supernatant); assay type: cell-based; conditions: Human immunodeficiency virus 1, 120 h, p24 antigen in culture supernatant after 5 days, read-out: Rate of Inhibition (%)
Procedure: 1 x 10⁶ clone H9 cells (©T-cells) were placed in individual culture tubes. The serially diluted test drug was then placed in each tube. Roughly 100TCID₅₀ of human immunodeficiency virus (culture supernatant of H9/HTLV-IIIB cells) were then placed in each tube to infect the above-mentioned cells. After incubating the tubes for 1 hour at 37°C in the presence of 5% CO₂, the unabsorbed viral particles and test substance were removed by centrifugal separation (x3000 g, 5 minutes). Moreover, after again centrifugally washing (x3000 g, 5 minutes) the cells with fresh culture liquid, fresh culture liquid was added to each tube to prepare cell suspensions having a concentration of 0.2 x 10⁶ cells per milliliter. 0.5 ml of these cell suspensions were added to each well of a 24 well culture plate containing 0.5 ml of the serially diluted test drug. After incubating this plate for 5 days at 37°C in the presence of 5% CO₂, the amount of p24, which is the human immunodeficiency virus antigen in the culture supernatant, was measured, followed by calculation of the rate of inhibition (%) at the concentrations of the test drug indicated below.

[2] = molecular target: Human immunodeficiency virus reverse transcriptase (Human immunodeficiency virus type 1 group M subtype B, UniProt P04585); assay: Effects on reverse transcriptase activity ([3H]deoxythymidine triphosphate uptake into DNA); assay type: biochemical; conditions: reverse transcriptase inhibitory activity; 30 minutes at 37°C; polyrA-oligo dT template-primer; read-out: 50% inhibitory concentration (IC50) (converted)
Procedure: A reaction mixture having the composition indicated below was prepared.
50 µl of this reaction mixture was allowed to react for 30 minutes at 37°C.
Quantitative determination of the reaction product in the form of DNA was performed by measuring the uptake of the radioactivity of [³H]deoxythymidine triphosphate into DNA using ion exchange filter paper, taking that to represent reverse transcriptase inhibitory activity, and calculating the 50% inhibitory concentration (IC₅₀) of the test compound.

O=C(O)/C=C(\C(=O)O[C@H]1[C@@H]2OC(=O)c3cc(O)c(O)c(O)c3-c3c(cc(O)c(O)c3O)C(=O)OC[C@H]1O[C@@H](OC(=O)c1cc(O)c(O)c(O)c1)[C@@H]2O)[C@H]1c2c(cc(O)c(O)c2O)C(=O)O[C@@H]1C(=O)O [Specific Example 1, repandusinic acid A monopotassium salt]
inhibition at 0.195 µg/mL ([1]; 0.195 µg/ml): 27.8%
inhibition at 3.125 µg/mL ([1]; 3.125 µg/ml): 66.7%
inhibition at 12.5 µg/mL ([1]; 12.5 µg/ml): 94.4%
IC50 [2]: 103 nM
